The nature of this data set: Solubility in organic solvents. The class given is physicochemical. To be noted: in each of toluene, xylene, N-methylpyrrolidone, γ-butyrolactone, 1,3-dimethyl-2-imidazoline, carbitol acetate, butylcarbitol acetate, dichloromethane, dichloroethane, chlorobenzene and isopropyl alcohol. On the procedure: Examples of the distyrylarylene derivative represented by general formula (1) of the present invention will be shown in the following. However, the distyrylarylene derivative of the present invention is not limited to the compounds shown as the examples. In the following, C5 means n-pentyl group. The compounds shown in the following as the examples are all dissolved into 1,2-dichloroethane at 20° C. in an amount of 0.5% by weight or more.
In the same procedures as those conducted in Example 1, 4,4″-bis(2,2-diphenylethenyl)-9′,10′-diphenylanthracene was used in place of Compound (A1) and attempted to be dissolved in organic solvents, which were toluene, xylene, N-methylpyrrolidone, γ-butyrolactone, 1,3-dimethyl-2-imidazoline, carbitol acetate, butylcarbitol acetate, dichloromethane, dichloroethane, chlorobenzene and isopropyl alcohol. However, this compound was hardly soluble in these solvents since the solubility was smaller than 0.01% by weight in all of these solvents, and no device could be prepared.

The structures appear in SMILES notation.

Consider `C(=C(c1ccccc1)c1ccccc1)c1ccc(-c2c3ccccc3c(-c3ccc(C=C(c4ccccc4)c4ccccc4)cc3)c3ccccc23)cc1` [4,4″-bis(2,2-diphenylethenyl)-9′,10′-diphenylanthracene], for which the solubility entry is reported as “smaller than 0.01 % by weight”.

These data come from patent publication US7357991B2, “Soluble compound and organic electroluminescent devices” (Idemitsu Kosan Co., Ltd., priority 2001, dated 2008).
